Patent US9446039B2, “Aminoheteroaryl compounds as MTH1 inhibitors” (CEMM—FORSCHUNGSZENTRUM FÜR MOLEKULARE MEDIZIN GMBH, priority 2012, dated 2016)

How the values were obtained:
Assay type in all cases: binding
[1] = molecular target: SW480 colon carcinoma cells lysate proteins (Homo sapiens, UniProt Q16555); conditions: PreyGene DPYSL2
[2] = molecular target: SW480 colon carcinoma cells lysate proteins (Homo sapiens, UniProt P62136); conditions: PreyGene PPP1CA
[3] = molecular target: T1, SW480 colon carcinoma cells lysate proteins (Homo sapiens, UniProt P40926); conditions: PreyGene MDH2
T1 sequence (P40926 25-338): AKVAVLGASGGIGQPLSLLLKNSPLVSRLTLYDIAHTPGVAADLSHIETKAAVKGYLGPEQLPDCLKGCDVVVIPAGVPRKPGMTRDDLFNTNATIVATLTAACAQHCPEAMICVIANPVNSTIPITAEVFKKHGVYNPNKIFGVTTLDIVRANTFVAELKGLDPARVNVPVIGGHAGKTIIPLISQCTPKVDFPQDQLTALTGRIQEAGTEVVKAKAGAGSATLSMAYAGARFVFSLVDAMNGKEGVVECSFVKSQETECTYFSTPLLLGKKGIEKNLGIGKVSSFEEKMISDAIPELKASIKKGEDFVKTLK

[4] = molecular target: T2, SW480 colon carcinoma cells lysate proteins (Homo sapiens, UniProt P52209); conditions: PreyGene PGD
T2 sequence (P52209 1-483): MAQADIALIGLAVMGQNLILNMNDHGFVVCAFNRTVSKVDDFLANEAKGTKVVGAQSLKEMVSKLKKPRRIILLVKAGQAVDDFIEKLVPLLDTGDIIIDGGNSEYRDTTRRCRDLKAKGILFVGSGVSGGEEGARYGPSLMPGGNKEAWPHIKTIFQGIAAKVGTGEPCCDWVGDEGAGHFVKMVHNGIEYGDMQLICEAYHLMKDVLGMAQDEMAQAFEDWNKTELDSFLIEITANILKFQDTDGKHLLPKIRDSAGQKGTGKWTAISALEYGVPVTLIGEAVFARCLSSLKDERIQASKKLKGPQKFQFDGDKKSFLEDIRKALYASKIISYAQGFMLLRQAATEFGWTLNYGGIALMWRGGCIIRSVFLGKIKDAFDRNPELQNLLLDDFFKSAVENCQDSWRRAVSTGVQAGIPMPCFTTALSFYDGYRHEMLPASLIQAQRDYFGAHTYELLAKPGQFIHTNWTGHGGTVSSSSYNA

[5] = molecular target: SW480 colon carcinoma cells lysate proteins (Homo sapiens, UniProt P06733); conditions: PreyGene ENO1
[6] = molecular target: T3, SW480 colon carcinoma cells lysate proteins (Homo sapiens, UniProt P11169); conditions: PreyGene SLC2A3
T3 sequence (P11169 1-496): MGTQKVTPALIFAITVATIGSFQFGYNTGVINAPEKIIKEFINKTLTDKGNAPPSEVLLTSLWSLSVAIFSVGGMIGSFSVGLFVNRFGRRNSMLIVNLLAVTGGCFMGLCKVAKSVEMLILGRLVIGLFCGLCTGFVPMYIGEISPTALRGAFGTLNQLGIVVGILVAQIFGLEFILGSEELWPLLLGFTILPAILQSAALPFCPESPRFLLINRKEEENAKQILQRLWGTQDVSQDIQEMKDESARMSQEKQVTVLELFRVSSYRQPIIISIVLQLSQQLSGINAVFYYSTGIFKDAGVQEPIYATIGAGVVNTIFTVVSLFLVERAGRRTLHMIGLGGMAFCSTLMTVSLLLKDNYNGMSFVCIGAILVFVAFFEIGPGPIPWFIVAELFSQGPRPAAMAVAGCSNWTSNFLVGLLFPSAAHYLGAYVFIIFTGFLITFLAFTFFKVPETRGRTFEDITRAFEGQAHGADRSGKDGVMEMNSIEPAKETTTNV

[7] = molecular target: SW480 colon carcinoma cells lysate proteins (Homo sapiens, UniProt Q00610); conditions: PreyGene CLTC; SW480 cells
[8] = molecular target: T4, SW480 colon carcinoma cells lysate proteins (Homo sapiens, UniProt O00154); conditions: PreyGene ACOT7
T4 sequence (O00154 1-380): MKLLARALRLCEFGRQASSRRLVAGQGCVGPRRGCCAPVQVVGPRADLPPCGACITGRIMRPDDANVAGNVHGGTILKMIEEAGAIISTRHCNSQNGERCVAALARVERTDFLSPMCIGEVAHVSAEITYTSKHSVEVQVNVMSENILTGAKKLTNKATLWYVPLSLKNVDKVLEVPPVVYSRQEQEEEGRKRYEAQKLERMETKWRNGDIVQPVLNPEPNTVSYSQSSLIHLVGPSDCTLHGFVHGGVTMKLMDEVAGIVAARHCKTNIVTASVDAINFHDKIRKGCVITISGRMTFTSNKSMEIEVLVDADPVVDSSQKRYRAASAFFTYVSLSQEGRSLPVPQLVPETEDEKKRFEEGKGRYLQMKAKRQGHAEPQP

Chain of SW480 colon carcinoma cells lysate proteins (Homo sapiens, UniProt P62136) (P62136 whole entry): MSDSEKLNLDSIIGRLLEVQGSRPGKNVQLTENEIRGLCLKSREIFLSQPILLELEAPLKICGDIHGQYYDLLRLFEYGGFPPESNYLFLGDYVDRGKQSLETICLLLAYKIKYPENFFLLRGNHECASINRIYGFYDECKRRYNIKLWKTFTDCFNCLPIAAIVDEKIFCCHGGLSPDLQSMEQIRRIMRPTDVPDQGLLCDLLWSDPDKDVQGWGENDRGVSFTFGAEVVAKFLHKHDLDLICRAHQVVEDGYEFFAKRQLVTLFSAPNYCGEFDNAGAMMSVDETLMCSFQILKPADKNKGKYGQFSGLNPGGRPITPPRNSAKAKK
Chain of SW480 colon carcinoma cells lysate proteins (Homo sapiens, UniProt P06733) (P06733 whole entry): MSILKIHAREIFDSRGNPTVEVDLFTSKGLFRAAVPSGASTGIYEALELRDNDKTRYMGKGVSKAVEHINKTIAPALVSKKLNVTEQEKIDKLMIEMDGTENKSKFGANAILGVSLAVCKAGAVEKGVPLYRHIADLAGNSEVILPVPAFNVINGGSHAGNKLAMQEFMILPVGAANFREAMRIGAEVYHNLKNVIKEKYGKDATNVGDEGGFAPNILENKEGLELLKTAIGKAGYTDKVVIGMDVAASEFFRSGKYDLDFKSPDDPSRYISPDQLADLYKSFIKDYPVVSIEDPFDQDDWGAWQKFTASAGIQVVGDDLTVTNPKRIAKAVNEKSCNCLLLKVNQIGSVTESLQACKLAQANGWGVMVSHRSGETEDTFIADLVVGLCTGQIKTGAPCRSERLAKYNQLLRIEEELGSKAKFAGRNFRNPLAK
Chain of SW480 colon carcinoma cells lysate proteins (Homo sapiens, UniProt Q00610) (Q00610 whole entry): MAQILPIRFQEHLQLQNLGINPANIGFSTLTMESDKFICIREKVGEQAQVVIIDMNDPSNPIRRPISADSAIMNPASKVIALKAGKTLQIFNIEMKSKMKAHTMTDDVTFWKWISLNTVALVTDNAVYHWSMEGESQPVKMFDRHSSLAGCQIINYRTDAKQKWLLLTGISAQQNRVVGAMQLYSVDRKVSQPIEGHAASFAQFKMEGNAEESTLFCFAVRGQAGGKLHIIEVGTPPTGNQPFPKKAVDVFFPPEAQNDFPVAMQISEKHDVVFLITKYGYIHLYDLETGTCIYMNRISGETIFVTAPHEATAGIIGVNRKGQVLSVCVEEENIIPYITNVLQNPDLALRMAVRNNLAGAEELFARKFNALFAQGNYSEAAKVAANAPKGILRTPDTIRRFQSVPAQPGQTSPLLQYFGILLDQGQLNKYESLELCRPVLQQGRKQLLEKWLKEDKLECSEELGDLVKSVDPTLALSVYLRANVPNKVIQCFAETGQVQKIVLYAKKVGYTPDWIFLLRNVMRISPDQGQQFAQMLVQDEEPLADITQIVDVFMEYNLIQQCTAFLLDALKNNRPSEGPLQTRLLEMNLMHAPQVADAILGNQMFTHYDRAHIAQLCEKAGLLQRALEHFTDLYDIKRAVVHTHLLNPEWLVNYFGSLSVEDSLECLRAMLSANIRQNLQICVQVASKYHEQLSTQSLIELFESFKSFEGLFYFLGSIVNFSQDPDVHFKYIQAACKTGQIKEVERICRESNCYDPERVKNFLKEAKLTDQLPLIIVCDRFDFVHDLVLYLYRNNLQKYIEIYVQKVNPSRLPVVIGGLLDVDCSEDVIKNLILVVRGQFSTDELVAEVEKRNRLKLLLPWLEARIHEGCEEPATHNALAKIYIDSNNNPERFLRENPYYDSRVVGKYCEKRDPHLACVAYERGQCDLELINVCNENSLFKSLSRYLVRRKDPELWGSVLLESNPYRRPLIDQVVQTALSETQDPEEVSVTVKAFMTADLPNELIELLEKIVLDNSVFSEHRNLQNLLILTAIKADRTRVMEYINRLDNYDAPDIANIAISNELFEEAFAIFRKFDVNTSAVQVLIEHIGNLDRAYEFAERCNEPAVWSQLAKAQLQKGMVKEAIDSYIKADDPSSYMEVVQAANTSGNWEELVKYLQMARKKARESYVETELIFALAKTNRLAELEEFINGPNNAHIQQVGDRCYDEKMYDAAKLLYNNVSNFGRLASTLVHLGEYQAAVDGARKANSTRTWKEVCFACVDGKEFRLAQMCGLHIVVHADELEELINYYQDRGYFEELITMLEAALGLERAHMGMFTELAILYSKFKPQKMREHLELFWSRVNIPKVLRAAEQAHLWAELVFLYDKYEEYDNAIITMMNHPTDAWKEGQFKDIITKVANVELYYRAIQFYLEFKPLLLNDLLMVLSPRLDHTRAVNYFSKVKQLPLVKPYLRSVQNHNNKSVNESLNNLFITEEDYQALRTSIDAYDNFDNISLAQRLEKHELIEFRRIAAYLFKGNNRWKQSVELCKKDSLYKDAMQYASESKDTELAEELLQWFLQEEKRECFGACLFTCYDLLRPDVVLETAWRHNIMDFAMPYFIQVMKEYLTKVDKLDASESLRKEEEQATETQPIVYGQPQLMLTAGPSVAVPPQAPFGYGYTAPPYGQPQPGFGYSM

Structure (SMILES): C[C@H](Oc1cc(-c2cnn(C3CCNCC3)c2)cnc1N)c1c(Cl)ccc(F)c1Cl [(5)-crizotinib]
- AvgP [1]: 0.3678
- SC.Exp. 1-1 [1]: 6
- SC.Exp. 1-2 [1]: 4
- SC.Exp. 2-1 [1]: 0
- SC.Exp. 2-2 [1]: 0
- Sum (SC.Exp.) [1]: 10
- AvgP [2]: 0.3721
- SC.Exp. 1-1 [2]: 2
- SC.Exp. 1-2 [2]: 2
- SC.Exp. 2-1 [2]: 0
- SC.Exp. 2-2 [2]: 0
- Sum (SC.Exp.) [2]: 4
- AvgP [3]: 0.4441
- SC.Exp. 1-1 [3]: 5
- SC.Exp. 1-2 [3]: 5
- SC.Exp. 2-1 [3]: 0
- SC.Exp. 2-2 [3]: 0
- Sum (SC.Exp.) [3]: 10
- AvgP [4]: 0.3262
- SC.Exp. 1-1 [4]: 4
- SC.Exp. 1-2 [4]: 2
- SC.Exp. 2-1 [4]: 0
- SC.Exp. 2-2 [4]: 0
- Sum (SC.Exp.) [4]: 6
- AvgP [5]: 0.2209
- SC.Exp. 1-1 [5]: 29
- SC.Exp. 1-2 [5]: 28
- SC.Exp. 2-1 [5]: 7
- SC.Exp. 2-2 [5]: 7
- Sum (SC.Exp.) [5]: 71
- AvgP [6]: 0.1834
- SC.Exp. 1-1 [6]: 3
- SC.Exp. 1-2 [6]: 0
- SC.Exp. 2-1 [6]: 0
- SC.Exp. 2-2 [6]: 0
- Sum (SC.Exp.) [6]: 3
- AvgP [7]: 0
- SC.Exp. 1-1 [7]: 16
- SC.Exp. 1-2 [7]: 14
- SC.Exp. 2-1 [7]: 5
- SC.Exp. 2-2 [7]: 7
- SC.Exp. Sum [7]: 42
- AvgP [8]: 0.2785
- SC.Exp. 1-1 [8]: 1
- SC.Exp. 1-2 [8]: 2
- SC.Exp. 2-1 [8]: 0
- SC.Exp. 2-2 [8]: 0
- Sum (SC.Exp.) [8]: 3
